Measurements from ChEMBL document CHEMBL1201862, “PubChem BioAssay data set” (2004).
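Assay format: 96-well plates, 48-hour exposure. Abbreviation: GI50, concentration required for 50% inhibition of growth.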 The source made the active and inactive calls. Cut-off read from the data, not from the text of the source: active = GI50 up to about 1.1 µM and inactive = higher.

What was measured:
Assay in all cases: NCI-60 cell line screen, 48 h
K562 = system: K562
UACC-62 = system: UACC-62
HOP-92 = system: HOP-92
SF-268 = system: SF-268
HOP-62 = system: HOP-62
Malme-3M = system: Malme-3M
HCT-116 = system: HCT-116
UACC-257 = system: UACC-257
OVCAR-8 = system: OVCAR-8
IGROV-1 = system: IGROV-1
M14 = system: M14
NCI-H460 = system: NCI-H460
SK-MEL-28 = system: SK-MEL-28
OVCAR-5 = system: OVCAR-5
ACHN = system: ACHN
OVCAR-3 = system: OVCAR-3
SK-MEL-5 = system: SK-MEL-5
KM12 = system: KM12
MDA-N = system: MDA-N

Measured: GI50

CC(=O)CNC(=O)OC(C)(C)C
inactive: K562 > 100 µM | UACC-62 > 100 µM | HOP-92 > 100 µM | SF-268 > 100 µM | HOP-62 > 100 µM | Malme-3M > 100 µM | HCT-116 > 100 µM | UACC-257 > 100 µM | OVCAR-8 > 100 µM | IGROV-1 > 100 µM | M14 > 100 µM | NCI-H460 > 100 µM | SK-MEL-28 > 100 µM | OVCAR-5 > 100 µM | ACHN > 100 µM | OVCAR-3 > 100 µM | SK-MEL-5 > 100 µM | KM12 > 100 µM

C1OC1CO[C@@H]1CO[C@H]2[C@@H]1OC[C@H]2OCC1CO1 (stereo partly specified)
inactive: K562 > 100 µM | UACC-62 > 100 µM | HOP-92 > 100 µM | SF-268 > 100 µM | HOP-62 > 100 µM | Malme-3M > 100 µM | HCT-116 > 100 µM | UACC-257 > 100 µM | OVCAR-8 > 100 µM | IGROV-1 > 100 µM | M14 > 100 µM | NCI-H460 61.7 µM | SK-MEL-28 > 100 µM | OVCAR-5 > 100 µM | ACHN 73.1 µM | OVCAR-3 > 100 µM | SK-MEL-5 > 100 µM | KM12 > 100 µM

O=C(COc1ccc2c(=O)cc(-c3ccc(Cl)cc3)oc2c1)N1CCN(c2ccccc2)CC1
inactive: K562 4.56 µM | UACC-62 > 100 µM | HOP-92 64.1 µM | SF-268 > 100 µM | HOP-62 > 100 µM | Malme-3M > 100 µM | HCT-116 55.1 µM | UACC-257 > 100 µM | OVCAR-8 > 100 µM | IGROV-1 > 100 µM | M14 > 100 µM | NCI-H460 > 100 µM | SK-MEL-28 > 100 µM | OVCAR-5 > 100 µM | ACHN > 100 µM | OVCAR-3 > 100 µM | SK-MEL-5 > 100 µM | KM12 89.9 µM

O=C1N[C@@H](O)[C@@H]2ON=C(c3ccccc3)[C@H]12
inactive: K562 > 100 µM | UACC-62 > 100 µM | HOP-92 > 100 µM | SF-268 > 100 µM | HOP-62 > 100 µM | Malme-3M > 100 µM | HCT-116 > 100 µM | UACC-257 > 100 µM | OVCAR-8 > 100 µM | IGROV-1 > 100 µM | M14 > 100 µM | NCI-H460 > 100 µM | SK-MEL-28 > 100 µM | OVCAR-5 > 100 µM | ACHN > 100 µM | OVCAR-3 > 100 µM | SK-MEL-5 > 100 µM | KM12 > 100 µM

O=c1oc2ccccc2n1CCN1CCCCC1
inactive: K562 > 100 µM | UACC-62 > 100 µM | SF-268 > 100 µM | HOP-62 > 100 µM | MDA-N > 100 µM | Malme-3M > 100 µM | HCT-116 > 100 µM | UACC-257 > 100 µM | OVCAR-8 > 100 µM | IGROV-1 > 100 µM | M14 > 100 µM | NCI-H460 > 100 µM | SK-MEL-28 > 100 µM | OVCAR-5 > 100 µM | ACHN > 100 µM | OVCAR-3 > 100 µM | SK-MEL-5 > 100 µM | KM12 > 100 µM

COc1ccc(-n2c(=O)[nH]n(C(C)=O)c2=O)cc1
inactive: K562 > 100 µM | UACC-62 > 100 µM | HOP-92 > 100 µM | SF-268 > 100 µM | MDA-N > 100 µM | Malme-3M > 100 µM | HCT-116 > 100 µM | UACC-257 > 100 µM | OVCAR-8 > 100 µM | IGROV-1 > 100 µM | M14 > 100 µM | NCI-H460 > 100 µM | SK-MEL-28 > 100 µM | OVCAR-5 > 100 µM | ACHN > 100 µM | SK-MEL-5 > 100 µM | KM12 > 100 µM

Cc1ccc2nc(-n3c(/C=C/c4ccccc4O)nc4ccccc4c3=O)sc2c1
inactive: K562 > 100 µM | UACC-62 > 100 µM | HOP-92 > 100 µM | HOP-62 > 100 µM | MDA-N > 100 µM | HCT-116 > 100 µM | UACC-257 > 100 µM | OVCAR-8 > 100 µM | IGROV-1 > 100 µM | M14 > 100 µM | NCI-H460 > 100 µM | SK-MEL-28 > 100 µM | OVCAR-5 > 100 µM | ACHN > 100 µM | OVCAR-3 > 100 µM | SK-MEL-5 > 100 µM | KM12 > 100 µM

c1ccc(SC23C4C5C6C4C2C6C53)nc1 (stereo unspecified)
inactive: K562 > 100 µM | UACC-62 > 100 µM | HOP-92 > 100 µM | SF-268 > 31.6 µM | HOP-62 > 100 µM | Malme-3M > 100 µM | HCT-116 > 100 µM | UACC-257 > 100 µM | OVCAR-8 > 100 µM | IGROV-1 > 100 µM | M14 > 100 µM | NCI-H460 > 100 µM | SK-MEL-28 > 100 µM | OVCAR-5 > 100 µM | ACHN > 100 µM | OVCAR-3 > 100 µM | SK-MEL-5 > 100 µM | KM12 > 100 µM

Cc1ccc(C2(O)CC(c3ccc([N+](=O)[O-])o3)=NN2C(=O)COc2ccc(Cl)cc2)cc1 (stereo unspecified)
inactive: K562 4.07 µM | UACC-62 3.55 µM | HOP-92 7.93 µM | SF-268 5.85 µM | HOP-62 12.3 µM | Malme-3M 11.6 µM | HCT-116 3.85 µM | UACC-257 4.91 µM | OVCAR-8 4.63 µM | IGROV-1 11.4 µM | M14 4.93 µM | NCI-H460 6.3 µM | SK-MEL-28 9.77 µM | OVCAR-5 37.2 µM | ACHN 4.99 µM | OVCAR-3 5.35 µM | SK-MEL-5 2.32 µM | KM12 4.66 µM

CC1(C)C(=O)N(c2ccccc2)C(=O)N1c1nc2ccccc2[nH]1
inactive: K562 53.6 µM | UACC-62 > 100 µM | HOP-92 > 100 µM | SF-268 > 100 µM | HOP-62 > 100 µM | Malme-3M > 100 µM | HCT-116 37.4 µM | UACC-257 > 100 µM | OVCAR-8 > 100 µM | IGROV-1 > 100 µM | M14 > 100 µM | NCI-H460 71.9 µM | SK-MEL-28 > 100 µM | OVCAR-5 > 100 µM | ACHN > 100 µM | OVCAR-3 > 100 µM | SK-MEL-5 > 100 µM | KM12 > 100 µM

O=C1Nc2ccccc2C12CCNC2Cc1ccccc1 (stereo unspecified)
inactive: K562 > 100 µM | UACC-62 > 100 µM | HOP-92 76.6 µM | SF-268 > 100 µM | HOP-62 > 100 µM | Malme-3M > 100 µM | HCT-116 > 100 µM | UACC-257 > 100 µM | OVCAR-8 > 100 µM | IGROV-1 > 100 µM | M14 > 100 µM | NCI-H460 > 100 µM | SK-MEL-28 > 100 µM | OVCAR-5 > 100 µM | ACHN > 100 µM | OVCAR-3 > 100 µM | SK-MEL-5 > 100 µM | KM12 > 100 µM
